{"source": "paper PMC12314375", "about": "“The GTPase κB-Ras is an essential subunit of the RalGAP tumor suppressor complex” (The Journal of Biological Chemistry, 2025)", "key": {"[1]": {"target": "T1, κB-Ras1–RGα2N complex (Homo sapiens, UniProt Q9NYS0)", "T1 construct": "gene NKIRAS1; GST-κB-Ras1 (2-175; 1-175 in Results) coexpressed in bacteria with 6xHis-SUMO-RGα2N (2-255, N-terminal domain); SUMO protease added, purified essentially as before, SEC", "T1 sequence (Q9NYS0 2-175)": "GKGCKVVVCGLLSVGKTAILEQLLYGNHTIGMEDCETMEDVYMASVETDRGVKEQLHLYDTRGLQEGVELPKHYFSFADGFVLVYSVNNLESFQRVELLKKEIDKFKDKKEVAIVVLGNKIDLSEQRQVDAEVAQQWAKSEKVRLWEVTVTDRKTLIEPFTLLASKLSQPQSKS", "T1 sequence (Q2PPJ7 2-255 partner)": "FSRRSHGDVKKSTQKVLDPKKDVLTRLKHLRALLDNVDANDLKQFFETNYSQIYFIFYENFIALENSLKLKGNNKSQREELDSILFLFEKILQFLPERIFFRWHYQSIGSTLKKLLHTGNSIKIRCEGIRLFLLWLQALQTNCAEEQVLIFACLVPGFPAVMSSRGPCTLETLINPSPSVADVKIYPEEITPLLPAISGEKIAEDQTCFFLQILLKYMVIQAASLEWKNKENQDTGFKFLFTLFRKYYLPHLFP", "test": "X-ray crystal structure, […] Å", "settings": "Mg2+; 100 µM GNP added; nucleotide-binding pocket of κB-Ras1"}, "[2]": {"target": "T2, κB-Ras1 (Homo sapiens, UniProt Q9NYS0)", "T2 construct": "gene NKIRAS1; residues 2-175, GST fusion from E. coli Rosetta, GST cut on column with PreScission protease, SEC", "T2 sequence (Q9NYS0 2-175)": "T1 sequence (Q9NYS0 2-175)", "test": "intrinsic GTP hydrolysis, HPLC of GTP/GDP", "assay_type": "biochemical", "settings": "100 µM GTP, 24 h, 5 mM MgCl2, pH 7.5"}, "[3]": {"target": "T3, κB-Ras1 (Homo sapiens, UniProt Q9NYS0, L65Q)", "T3 construct": "gene NKIRAS1; residues 2-175, GST fusion from E. coli Rosetta, GST cut on column with PreScission protease, SEC", "T3 sequence (Q9NYS0 2-175 L65Q)": "T1 sequence (Q9NYS0 2-175) with L64Q", "test": "intrinsic GTP hydrolysis, HPLC of GTP/GDP", "assay_type": "biochemical", "settings": "100 µM GTP, 24 h, 5 mM MgCl2, pH 7.5"}, "[4]": {"target": "T4, κB-Ras1 (Homo sapiens, UniProt Q9NYS0, G64A)", "T4 construct": "gene NKIRAS1; residues 2-175, GST fusion from E. coli Rosetta, GST cut on column with PreScission protease, SEC", "T4 sequence (Q9NYS0 2-175 G64A)": "T1 sequence (Q9NYS0 2-175) with G63A", "test": "intrinsic GTP hydrolysis, HPLC of GTP/GDP", "assay_type": "biochemical", "settings": "100 µM GTP, 24 h, 5 mM MgCl2, pH 7.5"}}, "note": "Where a chain is given by its changes, count along the chain named.", "data": [{"smiles": "Nc1nc2c(ncn2[C@@H]2O[C@H](COP(=O)(O)OP(=O)(O)NP(=O)(O)O)[C@@H](O)[C@H]2O)c(=O)[nH]1", "note": "[GNP, 5′-guanylyl imidodiphosphate]", "values": [{"measurement": "X-ray crystal structure, 2.72 Å", "setting": "[1]", "result": "nucleotide-binding pocket of κB-Ras1 is occupied by a magnesium ion and the nonhydrolyzable GTP analog"}]}, {"smiles": "Nc1nc2c(ncn2[C@@H]2O[C@H](COP(=O)(O)OP(=O)(O)OP(=O)(O)O)[C@@H](O)[C@H]2O)c(=O)[nH]1", "note": "[GTP]", "values": [{"measurement": "intrinsic GTP hydrolysis, HPLC of GTP/GDP", "setting": "[2]", "result": "intrinsic GTP hydrolysis by K-Ras, Rheb, κB-Ras1 WT, and variants measured in vitro"}, {"measurement": "intrinsic GTP hydrolysis, HPLC of GTP/GDP", "setting": "[3]", "result": "GTP hydrolysis was also not altered by this mutation"}, {"measurement": "intrinsic GTP hydrolysis, HPLC of GTP/GDP", "setting": "[4]", "result": "This substitution did not reduce intrinsic GTP hydrolysis activity of κB-Ras1 in vitro"}]}]}
